Laboratory results reported in the supplement of paper PMC13380429.

What was measured:
Conditions in all cases: 72 h
[1] = tested on: Caco-2; test: cell viability relative to DMSO; higher = less toxic
[2] = tested on: Calu-3; test: as above
[3] = tested on: HepG2; test: as above
[4] = tested on: U2OS; test: as above
[5] = tested on: Vero E6; test: as above
[6] = tested on: Caco-2; test: relative viability EC50 (midpoint between 100% and the lowest measured viability); higher = less toxic
[7] = tested on: Calu-3; test: as above
[8] = tested on: HepG2; test: as above
[9] = tested on: U2OS; test: as above
[10] = tested on: Vero E6; test: as above
[11] = tested on: Caco-2; test: drug sensitivity score (DSS) for viability; higher = more toxic; extreme values may be limits of the assay
[12] = tested on: Calu-3; test: as above
[13] = tested on: HepG2; test: as above
[14] = tested on: U2OS; test: as above
[15] = tested on: Vero E6; test: as above

Row | SMILES | cell viability ([1]; 1 nM) [%] | cell viability ([1]; 10 nM) [%] | cell viability ([1]; 100 nM) [%] | cell viability ([1]; 1000 nM) [%] | cell viability ([1]; 10000 nM) [%] | cell viability ([2]; 1 nM) [%] | cell viability ([2]; 10 nM) [%] | cell viability ([2]; 100 nM) [%] | cell viability ([2]; 1000 nM) [%] | cell viability ([2]; 10000 nM) [%] | cell viability ([3]; 1 nM) [%] | cell viability ([3]; 10 nM) [%] | cell viability ([3]; 100 nM) [%] | cell viability ([3]; 1000 nM) [%] | cell viability ([3]; 10000 nM) [%] | cell viability ([4]; 1 nM) [%] | cell viability ([4]; 10 nM) [%] | cell viability ([4]; 100 nM) [%] | cell viability ([4]; 1000 nM) [%] | cell viability ([4]; 10000 nM) [%] | cell viability ([5]; 1 nM) [%] | cell viability ([5]; 10 nM) [%] | cell viability ([5]; 100 nM) [%] | cell viability ([5]; 1000 nM) [%] | cell viability ([5]; 10000 nM) [%] | relative viability EC50 [6] [µM] | relative viability EC50 [7] [µM] | relative viability EC50 [8] [µM] | relative viability EC50 [9] [µM] | relative viability EC50 [10] [µM] | drug sensitivity score [11] | drug sensitivity score [12] | drug sensitivity score [13] | drug sensitivity score [14] | drug sensitivity score [15]
1 | CCn1cnc2c(Nc3cccc(Cl)c3)nc(N[C@@H]3CCCC[C@@H]3N)nc21 | 91.9 | 98.8 | 103 | 96.8 | 27.8 | 97.4 | 90.9 | 108 | 101 | 19.5 | 91.4 | 112 | 103 | 106 | 1.1 | 102 | 94.4 | 102 | 95.3 | 0.9 | 94.1 | 98.9 | 96.1 | 97.2 | 6.3 | 2.82 | 3.25 | 3.5 | 2.8 | 2.94 | 4.4 | 4.4 | 5 | 6.2 | 5.6
2 | N=C(N)c1ccc(N2CCN(C3CCN(CC(=O)O)CC3)CC2)cc1 | 83 | 97.2 | 89.2 | 92.5 | 104 | 91.4 | 96.4 | 90 | 92 | 100 | 111 | 96.8 | 101 | 107 | 102 | 97.6 | 103 | 95.6 | 96.9 | 102 | 97.9 | 98.6 | 99.2 | 93.5 | 96.9 | > 10 | > 10 | > 10 | > 10 | > 10 | 0 | 0 | 0 | 0 | 0
3 | CCCn1c(=O)c2nc(-c3ccccc3)[nH]c2n(CCC)c1=O [1,3-dipropyl-8-phenylxanthine] | 91.1 | 96.4 | 90.3 | 102 | 81.9 | 102 | 102 | 101 | 102 | 89.4 | 108 | 99.8 | 103 | 90.3 | 69.5 | 98.1 | 95.4 | 90.1 | 97.1 | 90.5 | 96.6 | 95.4 | 94 | 95.7 | 94.9 | > 10 | > 10 |  | > 10 | > 10 | 0.4 | 0 | 2.7 | 0 | 0
4 | CN(C)c1nc(N)c(C(=O)Nc2cccnc2)nc1Cl [ACDPP] | 87.4 | 98.7 | 93 | 89.2 | 87.9 | 100 | 96.8 | 104 | 96.4 | 94.6 | 104 | 105 | 103 | 80.9 | 58.9 | 93.6 | 98 | 97.7 | 98.5 | 105 | 102 | 95.3 | 98.3 | 95.1 | 99.9 | > 10 | > 10 |  | > 10 | > 10 | 0 | 0 | 4.5 | 0 | 0
5 | CN(C)C(=O)c1ccc(S(=O)(=O)c2ccc(NC(=O)[C@@](C)(O)C(F)(F)F)c(Cl)c2)cc1 [AZD7545] | 103 | 96.3 | 96.7 | 96.1 | 79.6 | 99.6 | 107 | 85.2 | 94 | 102 | 94.3 | 99.1 | 95 | 99.1 | 61 | 94.5 | 104 | 91.9 | 103 | 84.9 | 101 | 99 | 99.7 | 89 | 90.9 | > 10 | > 10 |  | > 10 | > 10 | 1.2 | 0 | 2 | 0.1 | 0.2
6 | O=c1c2ccccc2[se]n1-c1ccccc1 [Ebselen] | 102 | 89.2 | 104 | 91.6 | 92.2 | 104 | 91.8 | 107 | 83.1 | 87.7 | 113 | 98.2 | 103 | 100 | 106 | 103 | 95.8 | 105 | 98.9 | 74.5 | 97.6 | 100 | 105 | 92.8 | 93.7 | > 10 | > 10 | > 10 |  | > 10 | 0 | 1.7 | 0 | 1.1 | 0
